# According to ChEMBL document CHEMBL4765290, “Design, synthesis and biological evaluation of novel dual-acting modulators targeting both estrogen receptor α (ERα) and lysine-specific demethylase 1 (LSD1) for treatment of breast cancer” (Eur J Med Chem, 2020):
# Key:
# [1] = biological target: Lysine-specific histone demethylase 1A (Homo sapiens, UniProt O60341)
# Description: Inhibition of LSD1 (unknown origin) incubated for 90 mins by fluorescence based assay
# MCF7 [2] = assay: cells; conditions: Homo sapiens, MCF7, 72 h
# Description: Antiproliferative activity against human MCF7 cells assessed as reduction in cell viability after 72 hrs by MTT assay
# MCF7 [3] = assay: Induction of apoptosis in human MCF7 cells assessed as viable cells at 5 uM incubated for 24 hrs by AnnexinV-FITC and propidium iodide staining based flow cytometry analysis (reference value: 87.12 %); assay type: functional; conditions: read-out: Activity
# MCF7 [4] = assay: Induction of apoptosis in human MCF7 cells assessed as early apoptotic cells at 5 uM incubated for 24 hrs by AnnexinV-FITC and propidium iodide staining based flow cytometry analysis (reference value: 3.08 %); assay type: functional
# MCF7 [5] = assay: Induction of apoptosis in human MCF7 cells assessed as late apoptotic cells at 5 uM incubated for 24 hrs by AnnexinV-FITC and propidium iodide staining based flow cytometry analysis (reference value: 7.15 %); assay type: functional
# MCF7 [6] = assay: Induction of apoptosis in human MCF7 cells assessed as necrotic cells at 5 uM incubated for 24 hrs by AnnexinV-FITC and propidium iodide staining based flow cytometry analysis (reference value: 2.35 %); assay type: functional
# MCF7 [7] = assay: Induction of apoptosis in human MCF7 cells assessed as viable cells at 10 uM incubated for 24 hrs by AnnexinV-FITC and propidium iodide staining based flow cytometry analysis (reference value: 87.12 %); assay type: functional; conditions: read-out: Activity
# MCF7 [8] = assay: Induction of apoptosis in human MCF7 cells assessed as early apoptotic cells at 10 uM incubated for 24 hrs by AnnexinV-FITC and propidium iodide staining based flow cytometry analysis (reference value: 3.08 %); assay type: functional
# MCF7 [9] = assay: Induction of apoptosis in human MCF7 cells assessed as late apoptotic cells at 10 uM incubated for 24 hrs by AnnexinV-FITC and propidium iodide staining based flow cytometry analysis (reference value: 7.15 %); assay type: functional
# MCF7 [10] = assay: Induction of apoptosis in human MCF7 cells assessed as necrotic cells at 10 uM incubated for 24 hrs by AnnexinV-FITC and propidium iodide staining based flow cytometry analysis (reference value: 2.35 %); assay type: functional
# MCF7 [11] = assay: Induction of apoptosis in human MCF7 cells assessed as viable cells at 30 uM incubated for 24 hrs by AnnexinV-FITC and propidium iodide staining based flow cytometry analysis (reference value: 87.12 %); assay type: functional; conditions: read-out: Activity
# MCF7 [12] = assay: Induction of apoptosis in human MCF7 cells assessed as early apoptotic cells at 30 uM incubated for 24 hrs by AnnexinV-FITC and propidium iodide staining based flow cytometry analysis (reference value: 3.08 %); assay type: functional
# MCF7 [13] = assay: Induction of apoptosis in human MCF7 cells assessed as late apoptotic cells at 30 uM incubated for 24 hrs by AnnexinV-FITC and propidium iodide staining based flow cytometry analysis (reference value: 7.15 %); assay type: functional
# MCF7 [14] = assay: Induction of apoptosis in human MCF7 cells assessed as necrotic cells at 30 uM incubated for 24 hrs by AnnexinV-FITC and propidium iodide staining based flow cytometry analysis (reference value: 2.35 %); assay type: functional
Structure (SMILES),IC50 [1] [µM],IC50 (MCF7 [2]) [µM],also measured
O=S(=O)(Oc1cncc(Br)c1)C1CC2OC1C(c1ccc(O)cc1)=C2c1ccc(O)cc1 (stereo unspecified),> 50,16.4,
O=S(=O)(Oc1cncc(F)c1)C1CC2OC1C(c1ccc(O)cc1)=C2c1ccc(O)cc1 (stereo unspecified),18.3,13.8,
O=S(=O)(Oc1cccc(Cl)n1)C1CC2OC1C(c1ccc(O)cc1)=C2c1ccc(O)cc1 (stereo unspecified),4.08,10.2,
CCOC(=O)c1ccc(NS(=O)(=O)C2CC3OC2C(c2ccc(O)cc2)=C3c2ccc(O)cc2)cc1 (stereo unspecified),> 50,18.8,
O=S(=O)(Oc1cccnc1Cl)C1CC2OC1C(c1ccc(O)cc1)=C2c1ccc(O)cc1 (stereo unspecified),7.13,30.2,
Cc1cccc(NC(=O)C2CC3OC2C(c2ccc(O)cc2)=C3c2ccc(O)cc2)n1 (stereo unspecified),> 50,26.2,
O=C(Oc1cccnc1Br)C1CC2OC1C(c1ccc(O)cc1)=C2c1ccc(O)cc1 (stereo unspecified),> 50,84,
COC(=O)c1ccccc1NS(=O)(=O)C1CC2OC1C(c1ccc(O)cc1)=C2c1ccc(O)cc1 (stereo unspecified),30,30.5,
COC(=O)c1ccc(NS(=O)(=O)C2CC3OC2C(c2ccc(O)cc2)=C3c2ccc(O)cc2)cc1 (stereo unspecified),13.2,15.1,
O=C(NC1CC1)C1CC2OC1C(c1ccc(O)cc1)=C2c1ccc(O)cc1 (stereo unspecified),> 50,> 100,
O=S(=O)(Oc1cccc(Br)n1)C1CC2OC1C(c1ccc(O)cc1)=C2c1ccc(O)cc1 (stereo unspecified),5.92,7.9,
O=S(=O)(Oc1cccc2cccnc12)C1CC2OC1C(c1ccc(O)cc1)=C2c1ccc(O)cc1 (stereo unspecified),> 50,16.7,
O=C(Oc1cccnc1Cl)C1CC2OC1C(c1ccc(O)cc1)=C2c1ccc(O)cc1 (stereo unspecified),17.4,38.2,
O=S(=O)(Oc1cncc(Cl)c1)C1CC2OC1C(c1ccc(O)cc1)=C2c1ccc(O)cc1 (stereo unspecified),> 50,49.4,
Cc1cccc(NC(=O)C2CC3OC2C(c2ccc(O)cc2)=C3c2ccc(O)cc2)c1 (stereo unspecified),> 50,44.5,
O=S(=O)(Oc1ccc2ccccc2c1)C1CC2OC1C(c1ccc(O)cc1)=C2c1ccc(O)cc1 (stereo unspecified),15.1,4.11,
Cc1cc(=O)oc2cc(OS(=O)(=O)C3CC4OC3C(c3ccc(O)cc3)=C4c3ccc(O)cc3)ccc12 (stereo unspecified),13.7,38.3,
O=S(=O)(Oc1ccc(-c2ccccc2)cc1)C1CC2OC1C(c1ccc(O)cc1)=C2c1ccc(O)cc1 (stereo unspecified),> 50,4.1,
O=S(=O)(Oc1cccnc1Br)C1CC2OC1C(c1ccc(O)cc1)=C2c1ccc(O)cc1 (stereo unspecified),12.3,7.84,
O=C(NCc1ccc2c(c1)OCO2)C1CC2OC1C(c1ccc(O)cc1)=C2c1ccc(O)cc1 (stereo unspecified),> 50,35.2,
O=S(=O)(Oc1cccc(F)n1)C1CC2OC1C(c1ccc(O)cc1)=C2c1ccc(O)cc1 (stereo unspecified),1.55,8.79,viability at 5 µM (MCF7 [3]): 84.7%; Activity (MCF7 [4]): 4.62%; Activity (MCF7 [5]): 8.57%; Activity (MCF7 [6]): 2.08%; viability at 10 µM (MCF7 [7]): 79.7%; Activity (MCF7 [8]): 7.1%; Activity (MCF7 [9]): 11.03%; Activity (MCF7 [10]): 2.21%; viability at 30 µM (MCF7 [11]): 56.9%; Activity (MCF7 [12]): 13.74%; Activity (MCF7 [13]): 23.57%; Activity (MCF7 [14]): 5.79%
O=S(=O)(Oc1cccc2ccccc12)C1CC2OC1C(c1ccc(O)cc1)=C2c1ccc(O)cc1 (stereo unspecified),> 50,37.7,
O=c1cc(C(F)(F)F)c2ccc(OS(=O)(=O)C3CC4OC3C(c3ccc(O)cc3)=C4c3ccc(O)cc3)cc2o1 (stereo unspecified),> 50,12.5,
O=S(=O)(Oc1ccccc1)C1CC2OC1C(c1ccc(O)cc1)=C2c1ccc(O)cc1 (stereo unspecified),> 50,28.7,
CC/C(=C(\c1ccc(O)cc1)c1ccc(OCCN(C)C)cc1)c1ccccc1 [AFIMOXIFENE],> 50,,
